Reference: patent US4156724A, “N-acylamino-alpha-arylacetamido cephalosporins and antibacterial compositions and methods containing them” (Sumitomo Chemical Company, Limited, priority 1974, dated 1979)
Converted amounts (≈) assume the structure as drawn. Read-outs that look alike come from different tables or passages of the source.

Tests used:
Format in all cases: cell-based
[1] = system: Staphylococcus aureus 209 P; assay: Minimum Inhibitory Concentration, Staphylococcus aureus 209 P; details: read-out: Minimum Inhibitory Concentration
Description: (§1) anti-microbial activity tests were carried out on the compounds obtained in the Examples.

[2] = system: Staphylococcus aureus FS 289; assay: Minimum Inhibitory Concentration, Staphylococcus aureus FS 289
Description: as §1
*Staphylococcus aureus FS 289: strain resistant to penicillin

Escherichia coli NIHJ = assay: Minimum Inhibitory Concentration, Escherichia coli NIHJ; details: read-out: Minimum Inhibitory Concentration
Description: as §1

[3] = system: Klebsiella pneumoniae 602; assay: Minimum Inhibitory Concentration, Klebsiella pneumoniae 602
Description: as §1

Proteus vulgaris HX 19 = assay: Minimum Inhibitory Concentration, Proteus vulgaris HX 19
Description: as §1

[4] = system: Pseudomonas aeruginosa 104; assay: Minimum Inhibitory Concentration, Pseudomonas aeruginosa 104
Description: as §1

Serratia No. 72 = assay: Minimum Inhibitory Concentration, Serratia No. 72
Description: as §1

[5] = system: Enterobacter aerogeneus No. 75; assay: Minimum Inhibitory Concentration, Enterobacter aerogeneus No. 75
Description: as §1

[6] = FS289, Staphylococcus aureus FS 289, strain resistant to penicillin, read-out: Minimum Inhibitory Concentration
[7] = Klebsiella pneumoniae, 602, Klebsiella pneumoniae 602, read-out: Minimum Inhibitory Concentration
[8] = HX19, Proteus vulgaris HX 19, read-out: Minimum Inhibitory Concentration
[9] = Pseudomonas aeruginosa 104, read-out: Minimum Inhibitory Concentration
[10] = Enterobacter aerogeneus No. 75, read-out: Minimum Inhibitory Concentration

Structure (SMILES)	MIC ([1]; Staphylococcus aureus 209 P)	MIC [2, 6]	MIC (Escherichia coli NIHJ; Escherichia coli NIHJ)	MIC [3, 7]	MIC (Proteus vulgaris HX 19; [8])	MIC [4, 9]	MIC (Serratia No. 72)	MIC [5, 10]	MIC ([1]; Staphylococcus aureus, 209P)	MIC ([2]; Staphylococcus aureus, FS289, read-out: Minimum Inhibitory Concentration)	MIC (Escherichia coli NIHJ; Escherichia coli)	MIC ([3]; Klebsiella pneumoniae, 602, read-out: Minimum Inhibitory Concentration)	MIC (Proteus vulgaris HX 19; Proteus vulgaris, HX19, read-out: Minimum Inhibitory Concentration)	MIC ([4]; Pseudomonas aeruginosa, 104, read-out: Minimum Inhibitory Concentration)	MIC ([5]; Enterobacter, NO.75, read-out: Minimum Inhibitory Concentration)
Cc1ccc2c(O)c(C(=O)NC(C(=O)NC3C(=O)N4C(C(=O)O)=C(CSc5nnc(C)s5)CSC34)c3cccc(O)c3)cnc2n1 (stereo not drawn) [Example 168]	1.56 µg/mL (≈ 2.29 µM)	12.5 µg/mL (≈ 18.4 µM)	12.5 µg/mL (≈ 18.4 µM)	6.25 µg/mL (≈ 9.19 µM)	0.78 µg/mL (≈ 1.15 µM)	12.5 µg/mL (≈ 18.4 µM)	50 µg/mL (≈ 73.6 µM)	25 µg/mL (≈ 36.8 µM)	–	–	–	–	–	–	–
Cn1nnnc1SCC1=C(C(=O)O)N2C(=O)C(NC(=O)C(NC(=O)c3cccnc3O)c3ccc(CO)cc3)C2SC1 (stereo not drawn) [Example 112]	0.78 µg/mL (≈ 1.27 µM)	12.5 µg/mL (≈ 20.4 µM)	12.5 µg/mL (≈ 20.4 µM)	6.25 µg/mL (≈ 10.2 µM)	0.78 µg/mL (≈ 1.27 µM)	12.5 µg/mL (≈ 20.4 µM)	100 µg/mL (≈ 163 µM)	25 µg/mL (≈ 40.8 µM)	–	–	–	–	–	–	–
Cc1nnc(SCC2=C(C(=O)O)N3C(=O)C(NC(=O)C(NC(=O)c4cnc5c(O)ccnc5c4O)c4cccc(N)c4)C3SC2)s1 (stereo not drawn) [Example 76]	0.78 µg/mL (≈ 1.15 µM)	6.25 µg/mL (≈ 9.18 µM)	3.13 µg/mL (≈ 4.6 µM)	3.13 µg/mL (≈ 4.6 µM)	0.2 µg/mL (≈ 0.294 µM)	3.13 µg/mL (≈ 4.6 µM)	12.5 µg/mL (≈ 18.4 µM)	3.13 µg/mL (≈ 4.6 µM)	–	–	–	–	–	–	–
CN(C)c1ccc2ncc(C(=O)N[C@@H](C(=O)NC3C(=O)N4C(C(=O)O)=C(CSc5n[nH]c(=O)s5)CSC34)c3ccc(O)c(F)c3)c(O)c2n1 (stereo partly drawn) [Example 151]	0.78 µg/mL (≈ 1.07 µM)	6.25 µg/mL (≈ 8.58 µM)	1.56 µg/mL (≈ 2.14 µM)	1.56 µg/mL (≈ 2.14 µM)	0.39 µg/mL (≈ 0.535 µM)	6.25 µg/mL (≈ 8.58 µM)	12.5 µg/mL (≈ 17.2 µM)	6.25 µg/mL (≈ 8.58 µM)	–	–	–	–	–	–	–
CC(=O)OCC1=C(C(=O)O)N2C(=O)[C@@H](NC(=O)Cc3cccs3)[C@H]2SC1 [CET, reference compound]	–	–	–	–	–	–	> 200 µg/mL	–	0.1 µg/mL (≈ 0.252 µM)	0.78 µg/mL (≈ 1.97 µM)	12.5 µg/mL (≈ 31.5 µM)	0.78 µg/mL (≈ 1.97 µM)	3.13 µg/mL (≈ 7.9 µM)	> 200 µg/mL	> 200 µg/mL
CC(=O)OCC1=C(C(=O)O)N2C(=O)C(NC(=O)[C@H](NC(=O)c3cnc4cccnc4c3O)c3ccc(N)cc3)C2SC1 (stereo partly drawn) [Example 50, 7-[D-α-(4-Hydroxy-1,5-naphthyridine-3-carboxyamido)-α-p-aminophenylacetamido]cephalosporanic Acid]	1.56 µg/mL (≈ 2.63 µM)	6.25 µg/mL (≈ 10.5 µM)	3.13 µg/mL (≈ 5.28 µM)	3.13 µg/mL (≈ 5.28 µM)	0.39 µg/mL (≈ 0.658 µM)	6.25 µg/mL (≈ 10.5 µM)	50 µg/mL (≈ 84.4 µM)	6.25 µg/mL (≈ 10.5 µM)	–	–	–	–	–	–	–
COc1ccc2ncc(C(=O)NC(C(=O)NC3C(=O)N4C(C(=O)O)=C(CSc5cnn[nH]5)CSC34)c3ccc(CO)cc3)c(O)c2n1 (stereo not drawn) [Example 106]	1.56 µg/mL (≈ 2.3 µM)	6.25 µg/mL (≈ 9.21 µM)	3.13 µg/mL (≈ 4.61 µM)	1.56 µg/mL (≈ 2.3 µM)	0.2 µg/mL (≈ 0.295 µM)	6.25 µg/mL (≈ 9.21 µM)	12.5 µg/mL (≈ 18.4 µM)	6.25 µg/mL (≈ 9.21 µM)	–	–	–	–	–	–	–

More lines, in order of falling MIC ([1]; Staphylococcus aureus 209 P), values ahead:

MIC ([1]; Staphylococcus aureus 209 P)	MIC [2, 6]	MIC (Escherichia coli NIHJ; Escherichia coli NIHJ)	MIC [3, 7]	MIC (Proteus vulgaris HX 19; [8])	MIC [4, 9]	MIC (Serratia No. 72)	MIC [5, 10]	Structure (SMILES)	MIC ([1]; Staphylococcus aureus, 209P)	MIC ([2]; Staphylococcus aureus, FS289, read-out: Minimum Inhibitory Concentration)	MIC (Escherichia coli NIHJ; Escherichia coli)	MIC ([3]; Klebsiella pneumoniae, 602, read-out: Minimum Inhibitory Concentration)	MIC (Proteus vulgaris HX 19; Proteus vulgaris, HX19, read-out: Minimum Inhibitory Concentration)	MIC ([4]; Pseudomonas aeruginosa, 104, read-out: Minimum Inhibitory Concentration)	MIC ([5]; Enterobacter, NO.75, read-out: Minimum Inhibitory Concentration)
0.78 µg/mL (≈ 1.23 µM)	6.25 µg/mL (≈ 9.83 µM)	3.13 µg/mL (≈ 4.92 µM)	3.13 µg/mL (≈ 4.92 µM)	0.78 µg/mL (≈ 1.23 µM)	6.25 µg/mL (≈ 9.83 µM)	50 µg/mL (≈ 78.7 µM)	6.25 µg/mL (≈ 9.83 µM)	CC(=O)OCC1=C(C(=O)O)N2C(=O)[C@@H](NC(=O)[C@H](NC(=O)c3cnc4cccnc4c3O)c3ccc(NC(N)=O)cc3)[C@H]2SC1 [Example 7]	–	–	–	–	–	–	–
0.78 µg/mL (≈ 1.2 µM)	3.13 µg/mL (≈ 4.8 µM)	1.56 µg/mL (≈ 2.39 µM)	1.56 µg/mL (≈ 2.39 µM)	0.1 µg/mL (≈ 0.153 µM)	3.13 µg/mL (≈ 4.8 µM)	12.5 µg/mL (≈ 19.2 µM)	3.13 µg/mL (≈ 4.8 µM)	O=C(O)C1=C(CSc2nncs2)CSC2C(NC(=O)[C@H](NC(=O)c3cnc4cccnc4c3O)c3ccc(O)cc3)C(=O)N12 (stereo partly drawn) [Example 130]	–	–	–	–	–	–	–
0.39 µg/mL (≈ 0.594 µM)	6.25 µg/mL (≈ 9.52 µM)	6.25 µg/mL (≈ 9.52 µM)	6.25 µg/mL (≈ 9.52 µM)	0.1 µg/mL (≈ 0.152 µM)	6.25 µg/mL (≈ 9.52 µM)	50 µg/mL (≈ 76.1 µM)	12.5 µg/mL (≈ 19 µM)	Cc1nnc(SCC2=C(C(=O)O)N3C(=O)[C@@H](NC(=O)[C@H](NC(=O)c4cnccc4O)c4ccc(NC(N)=O)cc4)[C@H]3SC2)s1 [Example 12, 7-[D-α-(4-Hydroxypyridine-3-carboxyamido)-α-(p-ureidophenyl)acetamido]-3-(2-methyl-1,3,4-thiadiazol-5-yl)thiomethyl-3-cephem-4-carboxylic Acid]	–	–	–	–	–	–	–
0.39 µg/mL (≈ 0.623 µM)	6.25 µg/mL (≈ 9.99 µM)	6.25 µg/mL (≈ 9.99 µM)	6.25 µg/mL (≈ 9.99 µM)	0.1 µg/mL (≈ 0.16 µM)	6.25 µg/mL (≈ 9.99 µM)	50 µg/mL (≈ 79.9 µM)	12.5 µg/mL (≈ 20 µM)	NC(=O)Nc1ccc([C@@H](NC(=O)c2cnccc2O)C(=O)N[C@@H]2C(=O)N3C(C(=O)O)=C(CSc4cnn[nH]4)CS[C@H]23)cc1 [Example 14]	–	–	–	–	–	–	–
0.39 µg/mL (≈ 0.719 µM)	3.13 µg/mL (≈ 5.77 µM)	12.5 µg/mL (≈ 23 µM)	12.5 µg/mL (≈ 23 µM)	0.2 µg/mL (≈ 0.369 µM)	6.25 µg/mL (≈ 11.5 µM)	> 200 µg/mL	25 µg/mL (≈ 46.1 µM)	CC(=O)OCC1=C(C(=O)O)N2C(=O)C(NC(=O)[C@H](NC(=O)c3cnccc3O)c3ccc(O)cc3)C2SC1 (stereo partly drawn) [Example 113, 7-[D-α-(4-Hydroxypyridine-3-carbonamido)-α-p-hydroxyphenylacetamido]cephalosporanic Acid]	–	–	–	–	–	–	–
